From patent US5185320A, “O^56 -alkyl derivatives of aglycone and pseudo aglycones of teicoplanin” (Gruppo Lepetit S.p.A., priority 1989, dated 1993)

Columns and labels:
Format in all cases: cell-based
Settings in all cases: inoculum about 10^4 CFU/ml, 18-24 h at 37° C.
[1] = tested on: Strep. mitis L 796; assay: MIC, standard dilution test, Strep. mitis L 796
Protocol: (§1) ISOSENSITEST broth (Oxoid) and TOLLD-HEWITT broth (Difco) are used for growing staphylococci and streptococci, respectively. Broth cultures are diluted so that the final inoculum is about 10^4 colony forming units/ml (CFU/ml).

[2] = tested on: Pseudomonas aeruginosa ATCC 10145; assay: MIC, standard dilution test, Pseudomonas aeruginosa ATCC 10145
Protocol: as §1

[3] = tested on: Strep. pneumoniae UC41; assay: MIC, standard dilution test, Strep. pneumoniae UC41
Protocol: as §1

[4] = tested on: Haemophilus influenzae ATCC 19418; assay: MIC, standard dilution test, Haemophilus influenzae ATCC 19418
Protocol: as §1

[5] = tested on: Strep. pyogenes C 203; assay: MIC, standard dilution test, Strep. pyogenes C 203
Protocol: as §1

[6] = tested on: Staph. haemolyticus L 602; assay: MIC, standard dilution test, Staph. haemolyticus L 602
Protocol: as §1

[7] = tested on: Strep. faecalis ATCC 7080; assay: MIC, standard dilution test, Strep. faecalis ATCC 7080
Protocol: as §1

[8] = tested on: Proteus vulgaris ATCC 881; assay: MIC, standard dilution test, Proteus vulgaris ATCC 881
Protocol: as §1

[9] = tested on: Neisseria gonorrhoeae ISM68/126; assay: MIC, standard dilution test, Neisseria gonorrhoeae ISM68/126
Protocol: as §1

[10] = tested on: Staph. aureus Tour L 165; assay: MIC, standard dilution test, Staph. aureus Tour L 165
Protocol: as §1

[11] = tested on: Staph. epidermidis ATCC 12228; assay: MIC, standard dilution test, Staph. epidermidis ATCC 12228
Protocol: as §1

[12] = tested on: Escherichia coli SKF 12140; assay: MIC, standard dilution test, Escherichia coli SKF 12140
Protocol: as §1

Compound | Minimal inhibitory concentration (MIC) [1] | Minimal inhibitory concentration (MIC) [2] | Minimal inhibitory concentration (MIC) [3] | Minimal inhibitory concentration (MIC) [4] | Minimal inhibitory concentration (MIC) [5] | Minimal inhibitory concentration (MIC) [7] | Minimal inhibitory concentration (MIC) [8] | Minimal inhibitory concentration (MIC) [9] | Minimal inhibitory concentration (MIC) [10] | Minimal inhibitory concentration (MIC) [11] | Minimal inhibitory concentration (MIC) [12] | Minimal inhibitory concentration (MIC) [6]
COC(=O)C1NC(=O)C2NC(=O)C(NC(=O)C3NC(=O)C4NC(=O)C(Cc5ccc(c(Cl)c5)Oc5cc3cc(c5OCC3CO3)Oc3ccc(cc3Cl)C2O)NC(=O)C(N)c2ccc(O)c(c2)Oc2cc(O)cc4c2)c2ccc(O)c(c2)-c2c(O)cc(O)cc21.Cl (stereo not drawn) [Compound 1, O^56-(2,3-epoxypropyl)deglucoteicoplanin methyl ester] | 0.25 | > 128 | 0.125 | 64 | 0.063 | 0.5 | 64 | 64 | 0.125 | 0.063 | 32 | 1
NCCNC(=O)C(CCO)OC(=O)C1NC(=O)C2NC(=O)C(NC(=O)C3NC(=O)C4NC(=O)C(Cc5ccc(c(Cl)c5)Oc5cc3cc(c5OC(CCO)C(=O)NCCN)Oc3ccc(cc3Cl)C2O)NC(=O)C(N)c2ccc(O)c(c2)Oc2cc(O)cc4c2)c2ccc(O)c(c2)-c2c(O)cc(O)cc21 (stereo not drawn) [Compound 24] | 0.125 | > 128 | 0.25 | > 128 | 0.125 | 0.5 | 128 | 128 | 0.25 | 0.125 | 32 | 0.25
O-(2-(3-(4-(3-amino-propyl)amino)butyl)amino)propyl)amino)-1-hydroxy-2-oxoethyl)teicoplanin aglycone 1-(3-(4-(3-aminopropyl) amino)butyl)amino)propyl)amino)carbonyl)-3-hydroxy-propyl ester [Compound 25] | 0.125 | > 128 | 0.125 | > 128 | 0.125 | 1 | 64 | > 128 | 0.25 | 0.125 | 32 | 0.25
COC(=O)C1NC(=O)C2NC(=O)C(NC(=O)C3NC(=O)C4NC(=O)C(Cc5ccc(c(Cl)c5)Oc5cc3cc(c5OC(CCO)C(=O)O)Oc3ccc(cc3Cl)C2O)NC(=O)C(N)c2ccc(O)c(c2)Oc2cc(O)cc4c2)c2ccc(O)c(c2)-c2c(O)cc(O)cc21.Cl (stereo not drawn) [Compound 3, O^56-(1-carboxy-3-hydroxypropyl)deglucoteicoplanin methyl ester hydrochloride] | 0.25 | > 128 | 0.125 | > 128 | 0.125 | 0.125 | > 128 | 64 | 0.5 | 0.25 | > 128 | 2
N#CCOC(=O)C1NC(=O)C2NC(=O)C(NC(=O)C3NC(=O)C4NC(=O)C(Cc5ccc(c(Cl)c5)Oc5cc3cc(c5OCC#N)Oc3ccc(cc3Cl)C2O)NC(=O)C(N)c2ccc(O)c(c2)Oc2cc(O)cc4c2)c2ccc(O)c(c2)-c2c(O)cc(O)cc21.O=C(O)C(F)(F)F (stereo not drawn) [Compound 12, O^56 -(cyanomethyl)deglucoteicoplanin cyanomethyl ester trifluoroacetate salt] | 0.125 | > 128 | 0.125 | 64 | 0.125 | 1 | > 128 | > 128 | 0.125 | 0.063 | > 128 | 1

Continued, in another order:

Minimal inhibitory concentration (MIC) [1] | Minimal inhibitory concentration (MIC) [2] | Minimal inhibitory concentration (MIC) [3] | Minimal inhibitory concentration (MIC) [4] | Minimal inhibitory concentration (MIC) [5] | Minimal inhibitory concentration (MIC) [7] | Minimal inhibitory concentration (MIC) [8] | Minimal inhibitory concentration (MIC) [9] | Minimal inhibitory concentration (MIC) [10] | Minimal inhibitory concentration (MIC) [11] | Minimal inhibitory concentration (MIC) [12] | Compound | Minimal inhibitory concentration (MIC) [6]
0.125 | > 128 | 0.125 | > 128 | 0.125 | 4 | > 128 | > 128 | 2 | 2 | > 128 | COC(=O)C1NC(=O)C2NC(=O)C(NC(=O)C3NC(=O)C4NC(=O)C(Cc5ccc(c(Cl)c5)Oc5cc3cc(c5OCCCCN3C(=O)c5ccccc5C3=O)Oc3ccc(cc3Cl)C2O)NC(=O)C(N)c2ccc(O)c(c2)Oc2cc(O)cc4c2)c2ccc(O)c(c2)-c2c(O)cc(O)cc21.Cl (stereo not drawn) [Compound 2, O^56-[4(N-phthalimido)butyl]deglucoteicoplanin methyl ester] | 4
0.25 | 64 | 0.125 | 128 | 0.063 | 0.25 | 64 | 64 | 0.125 | 0.125 | 8 | NCCNCCOc1c2cc3cc1Oc1ccc(cc1Cl)C(O)C1NC(=O)C(NC(=O)C3NC(=O)C3NC(=O)C(Cc4ccc(c(Cl)c4)O2)NC(=O)C(N)c2ccc(O)c(c2)Oc2cc(O)cc3c2)c2ccc(O)c(c2)-c2c(O)cc(O)cc2C(C(=O)NCCN)NC1=O (stereo not drawn) [Compound 15, O^56-[2-(1-ethylendiaminyl)ethyl]deglucoteicoplanin ethylenediamine amide] | 0.25
0.125 | > 128 | 0.125 | 64 | 0.25 | 0.125 | > 128 | 64 | 0.25 | 0.125 | 32 | COC(=O)C1NC(=O)C2NC(=O)C(NC(=O)C3NC(=O)C4NC(=O)C(Cc5ccc(c(Cl)c5)Oc5cc3cc(c5OCCN3CCOCC3)Oc3ccc(cc3Cl)C2O)NC(=O)C(N)c2ccc(O)c(c2)Oc2cc(O)cc4c2)c2ccc(O)c(c2)-c2c(O)cc(O)cc21.Cl.Cl (stereo not drawn) [Compound 14, O^56-[2-(1-morpholinyl)ethyl]deglucoteicoplanin methyl ester dihydrochloride] | 2
0.125 | > 128 | 0.125 | 64 | 0.063 | 0.125 | > 128 | 32 | 0.125 | 0.125 | 32 | COC(=O)C1NC(=O)C2NC(=O)C(NC(=O)C3NC(=O)C4NC(=O)C(Cc5ccc(c(Cl)c5)Oc5cc3cc(c5OCCO)Oc3ccc(cc3Cl)C2O)NC(=O)C(N)c2ccc(O)c(c2)Oc2cc(O)cc4c2)c2ccc(O)c(c2)-c2c(O)cc(O)cc21 (stereo not drawn) [Compound 8, O^56-(2-hydroxyethyl) deglucoteicoplanin methyl ester] | 2
